Measured values reported in US5654282A, “Selectin binding glycopeptides” (Glycomed Incorporated, priority 1995, dated 1997).

Experiments:
[1] = system: P-selectin; assay: ELISA assay, selectin-IgG chimera binding to 2,3 sLex glycolipid (P-selectin); conditions: FIG. 5; tested at several concentrations; results expressed as percent of control binding; values only in the figure
Description: (§1) An ELISA assay (Foxall et al, The Journal of Cell Biology (1992) 117:895) is preferably used which consists of the following three steps:
(§2) 1. 2,3 sLex glycolipid is transferred into microtitre wells as solutions and then evaporated off. Excess, which remained unattached, is washed off with water. The wells are then blocked with a blocking agent, preferably BSA.
(§3) 2. Preparation of "multivalent" receptor of the Selectin-IgG chimera is carried out by combining the respective chimera with biotin labelled goat F(ab')2 anti-human IgG (Fc specific) and streptavidin-alkaline phosphatase diluted appropriately and incubated. This allows the soluble multivalent receptor complex to form.
(§4) 3. Potential inhibitors such as glyco-amino acids or glycopeptides of structural formula I are allowed to react with the soluble receptor. This solution is then placed in the microtitre wells that are prepared in step 1. The plate is incubated to allow the soluble receptor to bind to its natural ligand. In the presence of a strong inhibitor only a few of the receptors should be free to bind to the microtitre plate coated with the natural ligand.
(§5) The positive control is the signal produced by the soluble receptor when it is allowed to react with the natural ligand in the microtitre wells in the absence of any inhibitor. This is considered 100% binding. The signal produced by the receptor that is previously treated with an inhibitor (recorded as O.D.), is divided by the signal produced by the positive control and multiplied by 100 to calculate the % receptor bound to the well in the presence of the inhibitor. The reciprocal of this is the % inhibition.
(§6) The glyco-amino acids or glycopeptides of structural formula I can be tested for their ability to bind to a selectin receptor and/or block the binding site of the receptor and thereby prevent a natural ligand from binding to the selectin receptor (Foxall et al, The Journal of Cell Biology (1992) 117:895). A generalized procedure for testing the ligands is given below.
(§7) An ELISA assay is preferably used which consisted of the following three steps:
1. 2,3 sLex glycolipid (25 picomol/well) was transferred into microtitre wells as solutions and evaporated off. Excess, which remained unattached, was washed off with water. […]
The positive control was the signal produced by the soluble receptor when it was allowed to react with the natural ligand in the microtitre wells in the absence of any inhibitor. […] The signal produced by the receptor that was previously treated with an inhibitor (recorded as O.D.), was divided by the signal produced by the positive control and multiplied by 100 to calculate the % receptor bound to the well in the presence of the inhibitor. […]

[2] = system: L-selectin; assay: Stamper-Woodruff assay (lymphocyte adhesion to HEV of lymph node frozen sections); assay type: cell-based, Swiss Webster mice; Sprague-Dawley rats; conditions: FIG. 7; lymphocyte binding to HEV, percent of relative binding; values only in the figure
Text: (§8) Lymphocytes are known to circulate from blood to lymphoid tissues via high endothelial venules (HEV) on lymph nodes. L-selectin is expressed on the surface of lymphocytes and is believed to mediate lymphocyte adhesion by binding to the natural ligand on the HEV. The glyco-amino acids or glycopeptides of structural formula I can be tested for their ability to bind to a selectin receptor and/or block the binding site of the receptor and thereby prevent a natural ligand from binding to the selectin receptor. See, for example, Stoolman et al, The Journal of Cell Biology (1983) 96:722. The Stamper-Woodruff assay is well known in the art, and generally consists of the following three steps:
1. Preparation of the lymphocytes:
(a) The lymphocytes are obtained from the mesenteric nodes of female Swiss Webster mice, by gently teasing tissues with phosphate buffered saline (PBS). The cells are obtained by gently squeezing the cells from the tissues. The cells are dispersed and the cell clumps are removed. The single cell suspension is suspended, washed, and kept on ice until use (less than two hours). Cells are counted and prepared at an appropriate concentration.
(b) The superficial and deep cervical lymph nodes of female Sprague-Dawley rats are dissected and prepared in the same way as the mice.
2. Preparation of frozen sections:
Superficial or deep cervical lymph nodes are dissected from the animals, snap frozen, and immediately placed in a cryostat for sectioning. 10-μm sections are prepared and transferred onto glass slides, and air dried.
3. Potential inhibitors are added to lymphocyte suspensions 10-30 minutes before the start of the binding assay, and unless otherwise stated, are present throughout the subsequent binding incubation.
The frozen sections are used in the order in which they are cut. Aliquots of untreated lymphocytes (positive control), suspensions containing fucoidin (negative control) and suspensions containing potential inhibitors are layered on the sections in an arbitrary sequence such that the control and each test substance are represented once in a series.
The binding of the lymphocytes to the HEV is easily distinguishable from binding elsewhere by virtue of the characteristic picture of tightly packed, darkly stained lymphocytes overlaying the histologically distinctive HEV. The number of adherent lymphocytes on each HEV are counted and the average number of adherent cells per HEV (cells bound per HEV) is calculated. The results are expressed as a percent of relative binding, wherein the positive control is considered to be 100% binding.
as §8, with “were” for “can be”
(a) The lymphocytes were obtained from the mesenteric nodes of female Swiss Webster mice (23-27 g), by gently teasing tissues by phosphate buffered saline (PBS). […] Cells were counted and prepared at 3-4×10^7 cells/ml. […]

[3] = system: L-selectin; assay: ELISA assay, selectin-IgG chimera binding to 2,3 sLex glycolipid (L-selectin); conditions: FIG. 4; tested at several concentrations; results expressed as percent of control binding; values only in the figure
Description: as §1, §2, §3, §4, §5, §6, §7
1. 2,3 sLex glycolipid (25 picomol/well) was transferred into microtitre wells as solutions and evaporated off. Excess, which remained unattached, was washed off with water. The wells were blocked with 5% BSA at room temperature for an hour and washed with PBS containing 1 mM calcium.
2. Preparation of "multivalent" receptor of the Selectin-IgG chimera was carried out by combining the respective chimera (1 μg/mL) with biotin labelled goat F(ab')2 anti-human IgG (Fc specific) and streptavidin-alkaline phosphatase diluted 1:1000 in 1% BSA-PBS (1 mM calcium) and incubating at 37° C. for 15 min. This allowed the soluble multivalent receptor complex to form.
3. Potential inhibitors such as glyco-amino acids or glycopeptides of structural formula I were allowed to react with the soluble receptor at 37° C. for 45 min. This test assumes that optimal binding, between the soluble phase receptor complex and the inhibitor (non-natural ligand), would occur within this time frame. This solution was placed in the microtitre wells that were prepared in step 1. The plate was incubated at 37° C. for 45 minutes to allow the soluble receptor to bind to its natural ligand. In the presence of a strong inhibitor only a few receptors would be free to bind to the microtitre plate coated with the natural ligand.
The positive control was the signal produced by the soluble receptor when it was allowed to react with the natural ligand in the microtitre wells in the absence of any inhibitor. This was considered 100% binding. The signal produced by the receptor that was previously treated with an inhibitor (recorded as O.D.), was divided by the signal produced by the positive control and multiplied by 100 to calculate the % receptor bound to the well in the presence of the inhibitor. The reciprocal of this is the % inhibition.

[4] = system: P-selectin; assay: P-Selectin/HL-60 assay; assay type: cell-based; conditions: FIG. 6; HL-60 cells; tested at several concentrations; values only in the figure
Text: The glyco-amino acids or glycopeptides of structural formula I can be tested for their ability to inhibit P-selectin binding to its native ligand. A generalized procedure for testing the ligands is given below. A P-selectin/HL-60 assay is preferably used which consists of the following steps:
1. HL-60 cells are harvested and pelleted by centrifugation. The cells are washed, counted and the volume adjusted appropriately.
2. PVC microtiter plate is blocked with a blocking agent, and washed with TBS-BSA.
3. P-selectin is diluted appropriately in BSA-TBS Ca containing goat F(ab')2 anti-human IgG (Fc spec) and streptavidin-alkaline phosphatase. Positive controls have DMF added to equal the highest concentration of DMF in the sample compounds.
4. Ligands are incubated at room temperature with brisk rotation. […]
Para-nitrophenylphosphonate is added to the plate. […] Aliqouts from each well is transferred to a polystyrene microtiter plate and O.D. read at 405 nm. […] The signal produced by the receptor that is previously treated with an inhibitor (recorded as O.D.), is divided by the signal produced by the positive control and multiplied by 100 to calculate the % receptor bound to the well in the presence of the inhibitor. […]
1. […] The cells were washed three times with TBS without Ca, counted and the volume adjusted to 1.9×10^6 /ml in 1% BSA-TBS Ca just prior to use. […]

C[C@@H]1O[C@@H](CC(=O)N[C@@H](CCCCNC(=O)OC(C)(C)C)C(=O)O)[C@@H](O)[C@H](O)[C@@H]1O [#3, N-ω-t-butoxylcarbonyl-N-α-[(1-deoxy-α-L-fucopyranosyl)acetyl]-L-lysine]
inhibition of the binding of sLe^x to P-selectin [1]: inhibit the binding of sLe^x to P-selectin
inhibitory effects in the Stamper-Woodruff assay (cell adhesion) [2]: inhibitory effects
inhibition of the binding of sLe^x to L-selectin [3]: inhibit the binding of sLe^x to L-selectin

C[C@@H]1O[C@@H](CC(=O)N2CCC[C@H]2C(=O)N[C@H](C(=O)O)c2ccccc2)[C@@H](O)[C@H](O)[C@@H]1O [#5, N-[(1-deoxy-α-L-fucopyranosyl)acetyl]-L-proline-L-phenylglycine]
inhibition of the binding of sLe^x to P-selectin [1]: inhibit the binding of sLe^x to P-selectin
inhibitory effects in the Stamper-Woodruff assay (cell adhesion) [2]: inhibitory effects
inhibition of the binding of sLe^x to L-selectin [3]: inhibit the binding of sLe^x to L-selectin

C[C@@H]1O[C@@H](CC(=O)N2CCC[C@H]2C(=O)N[C@@H](Cc2ccccc2)C(=O)O)[C@@H](O)[C@H](O)[C@@H]1O [#1, N-[(1-deoxy-α-L-fucopyranosyl)acetyl]-L-proline-L-phenylalanine]
inhibition of the binding of sLe^x to P-selectin in the HL-60 assay [4]: inhibit the binding of sLe^x to P-selectin
inhibition of the binding of sLe^x to P-selectin [1]: inhibit the binding of sLe^x to P-selectin
inhibitory effects in the Stamper-Woodruff assay (cell adhesion) [2]: inhibitory effects
inhibition of the binding of sLe^x to L-selectin [3]: inhibit the binding of sLe^x to L-selectin

C[C@@H]1O[C@@H](CCCC(=O)N2CCC[C@H]2C(=O)N[C@@H](Cc2ccccc2)C(=O)O)[C@@H](O)[C@H](O)[C@@H]1O [#4, N-[4-(1-deoxy-α-L-fucopyranosyl)n-butanoyl]-L-proline-L-phenylalanine]
inhibition of the binding of sLe^x to P-selectin [1]: inhibit the binding of sLe^x to P-selectin
inhibitory effects in the Stamper-Woodruff assay (cell adhesion) [2]: inhibitory effects
inhibition of the binding of sLe^x to L-selectin [3]: inhibit the binding of sLe^x to L-selectin

C[C@H](NC(=O)C[C@@H]1O[C@@H](C)[C@@H](O)[C@@H](O)[C@@H]1O)C(=O)N1CCC[C@H]1C(=O)N[C@@H](Cc1ccccc1)C(=O)O [#2, N-[(1-deoxy-α-L-fucopyranosyl)acetyl]-L-alanine-L-proline-L-phenylalanine]
inhibition of the binding of sLe^x to P-selectin in the HL-60 assay [4]: inhibit the binding of sLe^x to P-selectin
inhibitory effects in the Stamper-Woodruff assay (cell adhesion) [2]: inhibitory effects
inhibition of the binding of sLe^x to L-selectin [3]: inhibit the binding of sLe^x to L-selectin

CC1OC(CCCC(=O)NC(Cc2ccccc2)C(=O)O)C(O)C(O)C1O [#6, N-[4-(1-deoxy-α-L-fucopyranosyl)n-butanoyl]-L-phenylalanine]
inhibition of the binding of sLe^x to L-selectin [3]: inhibit the binding of sLe^x to L-selectin
